This passage reports TGI results from PubChem BioAssay (NCI).

Among the test systems are OVCAR-8 ovarian; SW-620 colon; NCI-H522 lung; MOLT-4 leukemia; KM12 colon; 786-0 renal; RPMI-8226 leukemia; SK-MEL-28 melanoma; OVCAR-3 ovarian; HCT-116 colon.
Holding throughout (experiment): growth of human tumour cells (NCI), 48 h

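Growth conditions: 96-well plates. Treatment: test compound, 48 hours, 5 concentrations. Analysis: linear interpolation between bracketing concentrations; unreached endpoints set to highest concentration. TGI: total growth inhibition.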 Bounds are passed on as bounds.

In the case of `C[Si](C)(C)C1=C([Si](C)(C)C)C(Cl)(Cl)C1=O`, the TGI turned out to be 9.78 µM in the test with OVCAR-8 ovarian; 13.2 µM in the test on SW-620 colon; 3.6 µM with NCI-H522 lung; 3.45 µM in the test on MOLT-4 leukemia; 18.9 µM in the test with KM12 colon; 10 µM in the test with 786-0 renal. The TGI in the test on RPMI-8226 leukemia came to 3.99 µM; in the test on SK-MEL-28 melanoma it was 9.29 µM; with OVCAR-3 ovarian, 8.15 µM; in the test with HCT-116 colon it was 7.02 µM.
Turning to `O=C(Nc1ccccc1)c1cc(S(=O)(=O)N2CCNNC2=O)c(S)cc1Cl`, the TGI with OVCAR-8 ovarian, with SW-620 colon, in the test on NCI-H522 lung, in the test on MOLT-4 leukemia, in the test on KM12 colon and with 786-0 renal was more than 100 µM in each case. Further, the TGI in the test on RPMI-8226 leukemia was more than 100 µM; in the test with SK-MEL-28 melanoma, more than 100 µM; with OVCAR-3 ovarian, more than 100 µM; with HCT-116 colon, 95.5 µM.
Consider `c1cnc(N2CCN(Cc3c[nH]c4ccccc34)CC2)nc1`, for which the TGI in the test with OVCAR-8 ovarian was more than 100 µM; with SW-620 colon, more than 100 µM; with NCI-H522 lung, more than 100 µM; with MOLT-4 leukemia, more than 100 µM; in the test with KM12 colon, 76.6 µM; in the test with 786-0 renal, 31.9 µM. Also, the TGI was 63.7 µM in the test on RPMI-8226 leukemia, more than 100 µM with SK-MEL-28 melanoma, more than 100 µM in the test with OVCAR-3 ovarian and more than 100 µM in the test on HCT-116 colon.
For `CCn1c(SCC(=O)NNC(=S)NC)nc2ccccc2c1=O`, the TGI with OVCAR-8 ovarian, in the test with SW-620 colon, in the test on NCI-H522 lung, with MOLT-4 leukemia, in the test on KM12 colon and with 786-0 renal was more than 100 µM in each case. In addition, the TGI in the test on RPMI-8226 leukemia, in the test with SK-MEL-28 melanoma, with OVCAR-3 ovarian and in the test with HCT-116 colon was more than 100 µM in each case.
For the molecule `COc1cc(N(Cc2ccc3oc(=O)c(-c4ccccc4)nc3c2)Cc2ccc3oc(=O)c(-c4ccccc4)nc3c2)cc(OC)c1OC`, the TGI in the test on OVCAR-8 ovarian, in the test on SW-620 colon, in the test on NCI-H522 lung, with MOLT-4 leukemia, in the test with KM12 colon and in the test on 786-0 renal was more than 10 µM in each case. The TGI in the test with RPMI-8226 leukemia, in the test with SK-MEL-28 melanoma, in the test on OVCAR-3 ovarian and in the test on HCT-116 colon was more than 10 µM throughout.
As to `C[C@H](C/C=C/C(C)(C)O)[C@H]1CC[C@@]2(C)[C@@H]3CC[C@H]4C(C)(C)[C@@H](O)CC[C@@]45C[C@@]35CC[C@]12C`, the TGI with OVCAR-8 ovarian is 33.4 µM; with SW-620 colon, 65.4 µM; in the test with NCI-H522 lung, 15.4 µM; in the test on MOLT-4 leukemia, 32.8 µM; in the test on KM12 colon it was 77.4 µM; with 786-0 renal, 46.5 µM. For the same molecule, the TGI with RPMI-8226 leukemia was 52.8 µM; with SK-MEL-28 melanoma, 37.8 µM; with OVCAR-3 ovarian it was more than 100 µM; in the test on HCT-116 colon it was 37.1 µM.
Regarding `CCOc1cc(NC(C)=O)ccc1C(=O)NN1C(=O)CSC1c1ccccc1` (stereo not given), the TGI was more than 100 µM in the test with OVCAR-8 ovarian; more than 100 µM with SW-620 colon; more than 100 µM with NCI-H522 lung; 58.2 µM in the test with MOLT-4 leukemia; more than 100 µM in the test with KM12 colon; more than 100 µM with 786-0 renal. Besides, the TGI in the test on RPMI-8226 leukemia, with SK-MEL-28 melanoma, in the test with OVCAR-3 ovarian and with HCT-116 colon was more than 100 µM throughout.
`CN(C)c1cccc(NC2=NCCO2)c1`: the TGI in the test on OVCAR-8 ovarian is more than 100 µM; in the test on SW-620 colon, more than 100 µM; in the test with NCI-H522 lung, more than 100 µM; in the test on MOLT-4 leukemia, more than 100 µM; with KM12 colon it was 78.6 µM; in the test with 786-0 renal, more than 100 µM. Also, the TGI in the test on RPMI-8226 leukemia, in the test on SK-MEL-28 melanoma, with OVCAR-3 ovarian and in the test with HCT-116 colon was more than 100 µM in each case.
For `CC1C(c2ccc(Cl)cc2)c2cc3c(cc2OC1N1CCOCC1)OCO3` (stereo not given), the TGI with OVCAR-8 ovarian, in the test on SW-620 colon, with NCI-H522 lung, in the test with MOLT-4 leukemia, in the test with KM12 colon and with 786-0 renal was more than 100 µM each time. Moreover, the TGI in the test on RPMI-8226 leukemia, with SK-MEL-28 melanoma, with OVCAR-3 ovarian and with HCT-116 colon was more than 100 µM each time.
`CCOC(=O)C1=COC(C)(CCc2ccccc2)CC1=O` (stereo not given): the TGI in the test on OVCAR-8 ovarian was more than 100 µM; in the test with SW-620 colon, more than 100 µM; in the test with NCI-H522 lung, 89.8 µM; in the test on MOLT-4 leukemia, more than 100 µM; in the test on KM12 colon it was more than 100 µM; with 786-0 renal it was more than 100 µM. Besides, the TGI in the test with RPMI-8226 leukemia, in the test on SK-MEL-28 melanoma, with OVCAR-3 ovarian and in the test with HCT-116 colon was more than 100 µM in each case.
`Fc1cccc(F)c1C1SCc2nc3ccc(Cl)cc3n21` (stereo not given): the TGI in the test with OVCAR-8 ovarian, with SW-620 colon, in the test with NCI-H522 lung, in the test with MOLT-4 leukemia, with KM12 colon and with 786-0 renal was more than 100 µM each time. Further, the TGI in the test on RPMI-8226 leukemia, in the test on SK-MEL-28 melanoma, with OVCAR-3 ovarian and in the test on HCT-116 colon was more than 100 µM throughout.
For the molecule `Cc1ccc2c(c1)C(=O)C(C1OC(=O)c3ccccc31)C2` (stereo not given), the TGI in the test with OVCAR-8 ovarian, in the test on SW-620 colon, with NCI-H522 lung, in the test with MOLT-4 leukemia, in the test on KM12 colon and in the test with 786-0 renal was more than 100 µM in each case. Further, the TGI in the test on RPMI-8226 leukemia, in the test with SK-MEL-28 melanoma, in the test with OVCAR-3 ovarian and in the test with HCT-116 colon was more than 100 µM throughout.
`Cn1c(N/N=C/c2ccccc2)nc(-c2ccc([N+](=O)[O-])cc2)c(C#N)c1=O`: the TGI in the test with OVCAR-8 ovarian, with SW-620 colon, in the test on NCI-H522 lung, in the test on MOLT-4 leukemia, in the test on KM12 colon and with 786-0 renal was more than 100 µM in each case. Besides, the TGI in the test with RPMI-8226 leukemia is more than 100 µM; in the test with SK-MEL-28 melanoma it was more than 100 µM; in the test on OVCAR-3 ovarian, 44.9 µM; in the test on HCT-116 colon, more than 100 µM.
